The record followed here is US20260207621A1 (Vividion Therapeutics, Inc., priority 2022, published 2026).

The structures appear in SMILES notation. pIC50: −log10 of the molar value.

In one experiment the target is T1, KEAP1 C151 (Homo sapiens, UniProt Q14145).
T1 construct: treating 500 μg of cell lysate generated from MDA-MB-468 breast cancer cells with DMSO or compound; endogenous in cells; host or cells: MDA-MB-468 breast cancer cell lysate
Nature of the experiment: Nrf2 TMT measurement: in vitro TE50 for KEAP1 C151 (IA-DTB competition, targeted TMT mass spectrometry) in MDA-MB-468 cell lysate. The format is binding. To be noted: in vitro target engagement of KEAP1 C151, targeted TMT, read-out: KEAP1_C151 TE50. As for the experimental part: In vitro TE50 values for KEAP_C151 were obtained by treating 500 μg of cell lysate generated from MDA-MB-468 breast cancer cells with DMSO or compound for 1 hour at room temperature followed by the addition of 200 μM IA-DTB (in DMSO) for one hour at room temperature. Samples were then precipitated by the addition of 8× ice cold acetonitrile and incubated at −80° C. for two hours. Protein was then pelleted by centrifugation (4,200 RPM, 45 min, 4° C.). The pelleted material was resuspended in 9M Urea, 50 mM ammonium bicarbonate and proteins were reduced and alkylated by the addition of DTT and iodoacetamide (10 and 30 mM, respectively). Following reduction and alkylation, samples were exchanged into 2M urea (Zeba spin desalting plates, Thermo Fisher) and digested with Trypsin. IA-DTB labeled peptides were isolated with streptavidin agarose resin. Enriched peptides were eluted by the addition of 50% acetonitrile (ACN) 0.1% Formic Acid (FA) and dried in a SpeedVac vacuum concentrator.
Dried peptides were resuspended in 0.2 M EPPS pH 8.5 and treated with 6.5 μL of 11-plex tandem mass tag (TMT) (8.3 μg/μL in dry ACN) for 2 hours at room temperature. Reactions were quenched by the addition of 6.5 μL of 5% Hydroxylamine. Samples were then combined and desalted on a Biotage Evolute express ABN plate (600-0010-PX01).
Targeted TMT. Targeted TMT measurements were collected using an Orbitrap LumosTribrid Mass Spectrometer (Thermo Scientific) coupled to an UltiMate 3000 Series Rapid Separation LC system and autosampler (Thermo Scientific Dionex). Peptides were eluted onto a custom C18 capillary analytical column (75-μm inner diameter fused silica, packed with Acclaim PepMap C18 resin (Thermo Scientific)) using an Acclaim PepMap 100 (Thermo 164535) loading column, and separated at a flow rate of 1.0 μl min−1. Data were acquired using a specific MS3-based TMT method targeting the peptide containing KEAP1 C151 (C(+324.2)[…], +3 charge state) where MS2 peptide fragmentation is triggered upon detection of the peptide precursor ion. Subsequent MS3 analysis was then performed using pre-selected peptide fragment ions that were isolated for fragmentation using synchronous precursor selection. RAW files were converted to MZXML format and searched with the SEQUEST algorithm using the MassPike software package. TMT quantitation was performed with a filter requiring at least ten summed signal-to-noise for control channels. Quantified signals were used for dose response curve-fitting and IC50 calculation using R's drc package.

For a further experiment, the system named is Nrf2. Nature of the experiment: Nrf2 antagonism assay: ARE luciferase reporter in KYSE-70 cells. It is filed as cell-based. To be noted: positive Imax corresponds to Nrf2 antagonism; for Emax: Homo sapiens, KYSE-70, KYSE-70 cells, read-out: KYSE70 Cellular ARE Luciferase Imax (%). Summed up: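 KYSE-70 esophageal squamous carcinoma cells carrying Nrf2 W24C (constitutively Nrf2-high) with an ARE-driven luciferase reporter. Loss of luciferase signal reflects Nrf2 antagonism via KEAP1 C151 engagement. IC50 and Imax come from dose-response curves; positive Imax means antagonism.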

T1 sequence (Q14145 whole entry): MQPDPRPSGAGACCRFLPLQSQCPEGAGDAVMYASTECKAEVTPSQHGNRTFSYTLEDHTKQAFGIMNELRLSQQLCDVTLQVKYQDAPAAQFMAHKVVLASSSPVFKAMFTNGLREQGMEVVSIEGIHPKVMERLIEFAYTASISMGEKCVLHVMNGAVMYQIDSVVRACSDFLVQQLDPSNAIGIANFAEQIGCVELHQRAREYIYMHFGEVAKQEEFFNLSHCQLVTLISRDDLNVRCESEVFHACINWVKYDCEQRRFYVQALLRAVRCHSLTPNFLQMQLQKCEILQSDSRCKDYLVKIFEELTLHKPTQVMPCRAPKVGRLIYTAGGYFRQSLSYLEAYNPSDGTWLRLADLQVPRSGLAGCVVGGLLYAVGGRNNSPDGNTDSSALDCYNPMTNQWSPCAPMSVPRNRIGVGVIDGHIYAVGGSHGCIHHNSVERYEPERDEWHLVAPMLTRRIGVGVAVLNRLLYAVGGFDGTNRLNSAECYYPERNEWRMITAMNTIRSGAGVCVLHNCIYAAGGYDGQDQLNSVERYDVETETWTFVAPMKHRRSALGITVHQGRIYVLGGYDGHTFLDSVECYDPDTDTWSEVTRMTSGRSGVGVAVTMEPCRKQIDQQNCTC

In the case of `C=CC(=O)N1CCOCC1c1cc(Cl)cc(-c2cnc3cccnc3c2)c1` (single isomer, unassigned) [Compound 37, 1-(3-(3-chloro-5-(1,5-naphthyridin-3-yl)phenyl)morpholino)prop-2-en-1-one], on KEAP1 C151, the pIC50 was 7.66. In addition, in the experiment with Nrf2, the Emax turned out to be 85%.

For `C=CC(=O)N1CCOCC1c1cc(Cl)cc(-c2cc(C)ncn2)c1` (single isomer, unassigned) [Compound 38, 1-(3-(3-chloro-5-(6-methylpyrimidin-4-yl)phenyl)morpholino)prop-2-en-1-one], the pIC50 at KEAP1 C151 was 7.57. The Emax in the experiment with Nrf2 is 89%.

Consider `C=CC(=O)N1CCS(=O)(=O)CC1c1cc(Cl)cc(-c2cc[nH]c(=O)c2)c1` (single isomer, unassigned) [Compound 39, 4-(3-(4-acryloyl-1,1-dioxidothiomorpholin-3-yl)-5-chlorophenyl)pyridin-2(1H)-one], for which the pIC50 at KEAP1 C151 was 7.31. Besides, the Emax in the experiment on Nrf2 was 66%.

As for `C=CC(=O)N1CCOCC1c1cc(Cl)cc(-c2ccnc(N)n2)c1` (single isomer, unassigned) [Compound 40, 1-(3-(3-(2-aminopyrimidin-4-y1)-5-chlorophenyl)morpholino)prop-2-en-1-one], the pIC50 on KEAP1 C151 was 7.40. Also, the Emax in the experiment with Nrf2 stood at 93%.

As to `C=CC(=O)N1CCOCC1c1cc(Cl)cc(-c2nc[nH]n2)c1` (single isomer, unassigned) [Compound 41, 1-(3-(3-chloro-5-(1H-1,2,4-triazol-3-yl)phenyl)morpholino)prop-2-en-1-one], the pIC50 on KEAP1 C151 was 6.70. The Emax with Nrf2 was determined as 68%.

With `C=CC(=O)N1CCOCC1c1cc(Cl)cc(-c2ccncn2)c1` (single isomer, unassigned) [Compound 42, 1-(3-(3-chloro-5-(pyrimidin-4-yl)phenyl)morpholino)prop-2-en-1-one], the pIC50 on KEAP1 C151 is 7.43. In addition, the Emax in the experiment on Nrf2 came out at 79%.

`C=CC(=O)N1CCOCC1c1cc(Cl)cc(-c2ccn3ccnc3c2)c1` (single isomer, unassigned) [Compound 43, 1-(3-(3-chloro-5-(imidazo[1,2-a]pyridin-7-yl)phenyl)morpholino)prop-2-en-1-one]: on KEAP1 C151, the pIC50 is 7.60. The Emax with Nrf2 turned out to be 87%.

On to `C=CC(=O)N1CCOC[C@H]1c1cc(Cl)cc(-c2ccc(F)c(C(N)=O)c2)c1` (single isomer, unassigned) [Compound 44], for which the pIC50 at KEAP1 C151 was 7.80. Further, the Emax with Nrf2 came to 93%.

Take `C=CC(=O)N1CC(C)(C)OC[C@H]1c1cc(Cl)cc(-c2ncc(F)cn2)c1` (single isomer, unassigned) [Compound 45]: the pIC50 on KEAP1 C151 was 7.05. Moreover, in the experiment with Nrf2, the Emax was found to be 83%.

On to `C=CC(=O)N1CC(C)(C)OC[C@H]1c1cc(Cl)cc(-c2cc(C)ncn2)c1` (single isomer, unassigned) [Compound 46], for which the pIC50 at KEAP1 C151 was 6.85. Besides, the Emax in the experiment with Nrf2 stood at 84%.

For the compound `C=CC(=O)N1CC(C)(C)OC[C@H]1c1cc(Cl)cc(-c2ccc3nccnc3c2)c1` (single isomer, unassigned) [Compound 47], the pIC50 on KEAP1 C151 was 7.70. Further, the Emax in the experiment on Nrf2 worked out at 74%.

In the case of `C=CC(=O)N1CC(C)(C)OC[C@H]1c1cc(Cl)cc(-c2ccnc(C)n2)c1` (single isomer, unassigned) [Compound 48], the pIC50 on KEAP1 C151 was 7.18. Further, the Emax in the experiment on Nrf2 was found to be 85%.

Take `C=CC(=O)N1CCOCC1c1cc(Cl)cc(-c2ccnc(OC)n2)c1` (single isomer, unassigned) [Compound 49, 1-(3-(3-chloro-5-(2-methoxypyrimidin-4-yl)phenyl)morpholino)prop-2-en-1-one]: the pIC50 at KEAP1 C151 is 7.38. Besides, the Emax with Nrf2 amounted to 91%.

For the compound `C=CC(=O)N1CCS(=O)(=O)CC1c1cc(Cl)cc(-c2ccnc(C)n2)c1` (single isomer, unassigned) [Compound 50, 1-(3-(3-chloro-5-(2-methylpyrimidin-4-yl)phenyl)-1,1-dioxidothiomorpholino)prop-2-en-1-one], on KEAP1 C151, the pIC50 is 6.24. Also, the Emax with Nrf2 turned out to be 86%.

With `C=CC(=O)N1CCS(=O)(=O)CC1c1cc(Cl)cc(-c2ccnc(C)n2)c1` (single isomer, unassigned) [Compound 51, 1-(3-(3-chloro-5-(2-methylpyrimidin-4-yl)phenyl)-1,1-dioxidothiomorpholino)prop-2-en-1-one], the pIC50 at KEAP1 C151 is 6.63. The “KYSE70 Cellular ARE Luciferase Imax (%)” value with Nrf2 (KYSE-70 cells) is recorded as 89%.

On to `C=CC(=O)N1CCS(=O)(=O)CC1c1cc(Cl)cc(-c2cc(C)ncn2)c1` (single isomer, unassigned) [Compound 52, 1-(3-(3-chloro-5-(6-methylpyrimidin-4-yl)phenyl)-1,1-dioxidothiomorpholino)prop-2-en-1-one], for which the pIC50 at KEAP1 C151 is 6.76. Also, the Emax in the experiment on Nrf2 turned out to be 80%.

Consider `C=CC(=O)N1CCOCC1c1cc(Cl)cc(-c2cnn(C)c(=O)c2)c1` (single isomer, unassigned) [Compound 53, 5-(3-(4-acryloylmorpholin-3-y1)-5-chlorophenyl)-2-methylpyridazin-3(2H)-one], for which the pIC50 on KEAP1 C151 was 7.18. In addition, the Emax in the experiment with Nrf2 stood at 55%.

Turning to `C=CC(=O)N1CCOCC1c1cc(Cl)cc(-c2cnccn2)c1` (single isomer, unassigned) [Compound 54, 1-(3-(3-chloro-5-(pyrazin-2-yl)phenyl)morpholino)prop-2-en-1-one], the pIC50 on KEAP1 C151 was 7.31. Also, the Emax in the experiment with Nrf2 turned out to be 70%.

With `C=CC(=O)N1CCOC[C@H]1c1cc(Cl)cc(-c2ncnc3[nH]cnc23)c1` (single isomer, unassigned) [Compound 58], the pIC50 on KEAP1 C151 was 7.52. Also, the Emax in the experiment with Nrf2 is 95%.

In the case of `C=CC(=O)N1CCOCC1c1cc(Cl)cc(-c2cc(C(N)=O)ccc2F)c1` (single isomer, unassigned) [Compound 60, 3′-(4-acryloylmorpholin-3-yl)-5′-chloro-6-fluoro-[1,1′-biphenyl]-3-carboxamide], the pIC50 on KEAP1 C151 is 7.24. For the same compound, the Emax in the experiment with Nrf2 came to 70%.

For the compound `C=CC(=O)N1CC(C)(C)OC[C@H]1c1cc(Cl)cc(-c2ccc(F)c(C(N)=O)c2)c1` (single isomer, unassigned) [Compound 61], on KEAP1 C151, the pIC50 is 7.29. The Emax in the experiment on Nrf2 was determined as 89%.

As to `C=CC(=O)N1CCOC[C@H]1c1cc(Cl)cc(-c2ncn(CC(N)=O)n2)c1` (single isomer, unassigned) [Compound 62], the pIC50 on KEAP1 C151 is 6.66. Further, the Emax in the experiment on Nrf2 turned out to be 55%.

In the case of `C=CC(=O)N1CCOCC1c1cc(Cl)cc(-c2ccn3ccnc3n2)c1` (single isomer, unassigned) [Compound 63, 1-(3-(3-chloro-5-(imidazo[1,2-a]pyrimidin-7-yl)phenyl)morpholino)prop-2-en-1-one], the pIC50 at KEAP1 C151 was 8.48. In the experiment with Nrf2, the Emax amounted to 63%.

Consider `C=CC(=O)N1CCOCC1c1cc(Cl)nc(-c2ccn3ccnc3c2)c1` (single isomer, unassigned) [Compound 64, 1-(3-(2-chloro-6-(imidazo[1,2-a]pyridin-7-yl)pyridin-4-yl)morpholino)prop-2-en-1-one], for which the pIC50 on KEAP1 C151 was 9.00. The Emax with Nrf2 came to 75%.

Turning to `C=CC(=O)N1CCOCC1c1cc(Cl)nc(-c2ccc(F)c(C(N)=O)c2)c1` (single isomer, unassigned) [Compound 65, 5-(4-(4-acryloylmorpholin-3-yl)-6-chloropyridin-2-y1)-2-fluorobenzamide], at KEAP1 C151, the pIC50 is 7.62. Besides, the Emax with Nrf2 was determined as 88%.
